In patent US20080280862A1, “Methods, compositions, and kits for the treatment of pain” (priority 2007, published 2008):

System: TNFα
Assay: TNFα secretion by human white blood cells stimulated with PMA/ionomycin, synergy score
Format: cell-based
Design: key: S = Σ Idata(Idata−ILoewe) × ln dilution factors; volume over Loewe additivity
Settings: PBMC stimulated with PMA/Ionomycin
Experimental: A 100 μl suspension of diluted human white blood cells contained within each well of a polystyrene 384-well plate (NalgeNunc) was stimulated to secrete TNFα by treatment with a final concentration of 10 ng/mL phorbol 12-myristate 13-acetate (Sigma, P-1585) and 750 ng/mL ionomycin (Sigma, I-0634). Various concentrations of each test compound were added at the time of stimulation. After 16-18 hours of incubation at 37° C. in a humidified incubator, the plate was centrifuged and the supernatant transferred to a white opaque polystyrene 384-well plate (NalgeNunc, Maxisorb) coated with an anti-TNFα antibody (PharMingen, #551220). After a two-hour incubation, the plate was washed (Tecan PowerWasher 384) with PBS containing 0.1% Tween 20 and incubated for an additional one hour with another anti-TNFα antibody that was biotin labeled (PharMingen, #554511) and HRP coupled to strepavidin (PharMingen, #13047E). After the plate was washed with 0.1% Tween 20/PBS, an HRP-luminescent substrate was added to each well and light intensity measured using a LJL Analyst plate luminometer.
The synergy scores calculated for the various combinations of compounds set forth in Table 3 was calculated by the formula S=log fX log fYΣIdata(Idata−ILoewe), summed over all non-single-agent concentration pairs, and where log fX,Y are the natural logarithm of the dilution factors used for each single agent. This effectively calculates a volume between the measured and Loewe additive response surfaces, weighted towards high inhibition and corrected for varying dilution factors.

[1] = combination with Hydrocortisone

Structure (SMILES) | Synergy Score based on TNF-α inhibition (combination with Betamethasone) | Synergy Score based on TNF-α inhibition (combination with Budesonide) | Synergy Score based on TNF-α inhibition (combination with Dexamethasone) | Synergy Score based on TNF-α inhibition [1] | Synergy Score based on TNF-α inhibition (combination with Prednisolone) | Synergy Score based on TNF-α inhibition (combination with Triamcinolone) | Synergy Score based on TNF-α inhibition (combination with Clobetasol) | Synergy Score based on TNF-α inhibition (combination with Diflorasone)
CN1CCC(=C2c3ccccc3CC(=O)c3sccc32)CC1 [Ketotifen] | 0.37 | 0.15 | 1.6 | 0.31 | 0.78 | 0.15 |  | 
CNCCCN1c2ccccc2CCc2ccccc21 [Desipramine] | 0.69 | 1 | 1.6 | 0.74 | 1.3 | 0.44 | 0.52 | 0.5
CNCCCC1c2ccccc2C=Cc2ccccc21 [Protriptyline] | 0.53 | 1.2 | 1.3 | 0.68 | 1.1 | 0.37 | 0.95 | 0.67
CN(C)CCC=C1c2ccccc2C=Cc2ccccc21 [Cyclobenzaprine] | 0.29 | 0.7 | 1.2 | 0.21 | 0.36 | 0.37 |  | 
CN1CCC(=C2c3ccccc3C=Cc3ccccc32)CC1 [Cyproheptadine] | 0.8 | 0.56 | 1.3 | 0.75 | 1.3 | 0.57 |  | 
